Tests used:
Type in all cases: binding
Details in all cases: Compound Concentration 10 µM
panel of 442 kinases [1] = biological target: T1, panel of 442 kinases (Homo sapiens, UniProt P36888)
T1 construct: purchased KINOMEscan
T1 sequence (P36888 27-993): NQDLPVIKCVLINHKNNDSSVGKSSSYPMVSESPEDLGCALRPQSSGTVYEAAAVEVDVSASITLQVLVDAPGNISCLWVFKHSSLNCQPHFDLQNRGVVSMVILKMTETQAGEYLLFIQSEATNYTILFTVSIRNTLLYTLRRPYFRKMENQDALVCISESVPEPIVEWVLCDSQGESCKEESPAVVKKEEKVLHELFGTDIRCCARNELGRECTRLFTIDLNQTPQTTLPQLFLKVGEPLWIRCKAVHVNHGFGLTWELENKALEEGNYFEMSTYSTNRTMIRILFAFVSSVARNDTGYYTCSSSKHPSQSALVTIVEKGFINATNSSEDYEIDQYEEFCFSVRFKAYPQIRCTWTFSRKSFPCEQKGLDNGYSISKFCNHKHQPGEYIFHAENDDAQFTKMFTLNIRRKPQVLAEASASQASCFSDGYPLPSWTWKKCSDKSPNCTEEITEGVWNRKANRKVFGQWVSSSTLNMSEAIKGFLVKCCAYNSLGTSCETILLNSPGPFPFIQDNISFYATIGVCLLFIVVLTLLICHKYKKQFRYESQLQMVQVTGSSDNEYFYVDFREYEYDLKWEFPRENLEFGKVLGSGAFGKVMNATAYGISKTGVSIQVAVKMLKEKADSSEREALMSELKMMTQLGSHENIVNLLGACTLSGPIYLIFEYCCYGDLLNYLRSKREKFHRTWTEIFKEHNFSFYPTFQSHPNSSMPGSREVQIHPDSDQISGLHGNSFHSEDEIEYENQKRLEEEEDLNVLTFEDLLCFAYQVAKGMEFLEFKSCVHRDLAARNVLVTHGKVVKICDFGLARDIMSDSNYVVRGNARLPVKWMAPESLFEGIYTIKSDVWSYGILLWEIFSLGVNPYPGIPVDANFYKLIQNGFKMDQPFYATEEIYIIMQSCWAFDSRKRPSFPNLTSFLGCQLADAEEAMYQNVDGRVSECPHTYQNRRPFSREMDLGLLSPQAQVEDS
Text: (§1) We assessed the selectivity of members of this scaffold using the KINOMEscan methodology across a near comprehensive panel of 442 kinases [[18,27]].

panel of 442 kinases [2] = biological target: T2, panel of 442 kinases (Homo sapiens, UniProt P21802)
T2 construct: purchased KINOMEscan
Text: as §1

panel of 442 kinases [3] = biological target: T3, panel of 442 kinases (Homo sapiens, UniProt P45983)
T3 construct: purchased KINOMEscan
Text: as §1

T3 sequence (P45983 whole entry): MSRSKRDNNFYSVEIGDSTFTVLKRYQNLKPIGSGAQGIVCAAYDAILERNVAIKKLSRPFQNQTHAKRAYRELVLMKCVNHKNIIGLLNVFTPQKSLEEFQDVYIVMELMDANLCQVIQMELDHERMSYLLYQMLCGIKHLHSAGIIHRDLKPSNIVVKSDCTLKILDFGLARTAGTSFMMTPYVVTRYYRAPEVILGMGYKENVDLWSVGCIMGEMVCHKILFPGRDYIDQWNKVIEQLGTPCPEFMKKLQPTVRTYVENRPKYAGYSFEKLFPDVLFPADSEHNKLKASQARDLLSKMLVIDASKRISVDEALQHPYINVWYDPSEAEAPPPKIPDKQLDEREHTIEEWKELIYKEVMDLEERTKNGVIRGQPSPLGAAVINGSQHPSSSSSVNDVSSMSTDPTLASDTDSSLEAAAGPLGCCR
T2 sequence (P21802 22-821): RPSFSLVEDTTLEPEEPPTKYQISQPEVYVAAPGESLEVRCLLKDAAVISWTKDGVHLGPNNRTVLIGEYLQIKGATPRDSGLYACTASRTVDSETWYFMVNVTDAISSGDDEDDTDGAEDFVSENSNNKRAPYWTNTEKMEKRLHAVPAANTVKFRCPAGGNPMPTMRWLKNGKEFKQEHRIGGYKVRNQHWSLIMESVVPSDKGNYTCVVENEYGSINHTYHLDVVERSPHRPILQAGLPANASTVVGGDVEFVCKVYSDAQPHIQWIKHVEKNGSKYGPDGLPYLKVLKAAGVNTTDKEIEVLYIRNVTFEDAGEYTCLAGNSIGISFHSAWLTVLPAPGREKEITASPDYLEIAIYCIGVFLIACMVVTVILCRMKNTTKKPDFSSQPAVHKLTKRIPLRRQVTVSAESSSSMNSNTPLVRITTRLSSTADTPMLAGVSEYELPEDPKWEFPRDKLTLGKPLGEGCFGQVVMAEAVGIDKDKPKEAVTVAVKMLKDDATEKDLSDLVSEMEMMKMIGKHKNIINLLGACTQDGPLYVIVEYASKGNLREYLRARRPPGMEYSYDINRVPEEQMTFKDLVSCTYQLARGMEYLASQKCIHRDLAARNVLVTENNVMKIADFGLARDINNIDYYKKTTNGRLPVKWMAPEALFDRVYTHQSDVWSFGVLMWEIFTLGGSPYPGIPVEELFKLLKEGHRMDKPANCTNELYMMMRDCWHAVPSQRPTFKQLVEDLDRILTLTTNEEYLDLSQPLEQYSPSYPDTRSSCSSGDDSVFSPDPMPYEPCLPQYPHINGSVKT

Compound	KINOMEscan: FLT3 (panel of 442 kinases [1])	KINOMEscan: FGFR2 (panel of 442 kinases [2])	KINOMEscan: JNK1 (panel of 442 kinases [3])
COc1cc(C(=O)N2CCC(N3CCN(C)CC3)CC2)ccc1Nc1ncc2c(n1)N(C)c1ccccc1C(=O)N2C [15 (LRRK2-IN-1)]	100	95	95
COc1cc(C(=O)N2CCC(N3CCN(C)CC3)CC2)ccc1Nc1ncc2c(n1)N1CCc3cccc(c31)C(=O)N2C [Compound 24]	–	83	63
COc1cc(C(=O)N2CCC(N3CCN(C)CC3)CC2)ccc1Nc1ncc2c(n1)N(C1CCCC1)c1ccccc1C(=O)N2C [Compound 25, 11-cyclopentyl-2-((2-methoxy-4-(4-(4-methylpiperazin-1-yl)piperidine-1-carbonyl)phenyl)amino)-5-methyl-5H-benzo[e]pyrimido[5,4-b][1,4]diazepin-6(11H)-one]	100	100	38
CCOc1cc(C(=O)N2CCC(N3CCN(C)CC3)CC2)ccc1Nc1ncc2c(n1)N(C1CCCC1)c1ccccc1C(=O)N2C [Compound 26]	100	100	76

— paper PMC3914206
